This note sets out measurements from US20100041646A1, “Phenylene-Bis-Oxazolidine Derivatives and Their Use as Anticoagulants” (BAYER HEALTHCARE AG, priority 2005, published 2010).

Each structure is given as a SMILES string.

Chain of human factor Xa (FXa) (P00742 235-488 limits assumed): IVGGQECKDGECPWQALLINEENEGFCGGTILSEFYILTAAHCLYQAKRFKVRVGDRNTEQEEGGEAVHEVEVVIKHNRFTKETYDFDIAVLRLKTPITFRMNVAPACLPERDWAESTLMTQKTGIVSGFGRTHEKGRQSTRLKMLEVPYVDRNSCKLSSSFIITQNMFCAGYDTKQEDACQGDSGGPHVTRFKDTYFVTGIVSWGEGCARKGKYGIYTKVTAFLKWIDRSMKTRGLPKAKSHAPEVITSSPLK
Chain of human factor Xa (FXa) (P00742 41-179 partner limits assumed): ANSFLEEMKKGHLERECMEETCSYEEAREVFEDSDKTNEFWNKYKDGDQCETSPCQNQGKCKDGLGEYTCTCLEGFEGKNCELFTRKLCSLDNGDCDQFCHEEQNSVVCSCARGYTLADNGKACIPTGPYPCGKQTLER

This assay concerns the target human factor Xa (FXa) (Homo sapiens, UniProt P00742). Description: Determination of the factor Xa inhibition (chromogenic substrate). The format is biochemical. Conditions: human FXa 0.5 nmol/l, 150 μmol/l Pefachrome FXa, 25° C., extinction at 405 nm. As for the experimental part:
The enzymatic inhibition of human factor Xa (FXa) is measured using the conversion of a chromogenic substrate specific for FXa. Factor Xa cleaves p-nitroaniline from the chromogenic substrate. The determinations are carried out in microtiter plates as follows:
The test substances, in various concentrations, are dissolved in DMSO and incubated for 10 minutes at 25° C. with human FXa (0.5 nmol/l dissolved in 50 mmol/l of Tris buffer [C,C,C-tris(hydroxymethyl)aminomethane], 150 mmol/l of NaCl, 0.1% BSA [bovine serum albumin], pH 20=8.3). Pure DMSO is used as control. The chromogenic substrate (150 μmol/l Pefachrome® FXa from Pentapharm) is then added. After an incubation time of 20 minutes at 25° C., the extinction at 405 nm is determined.
Regarding `N=C1OCCN1c1ccc(N2C[C@H](CNC(=O)c3ccc(Cl)s3)OC2=O)cc1` [Example 1, 5-Chloro-N-({(5S)-3-[4-(2-imino-1,3-oxazolidin-3-yl)phenyl]-2-oxo-1,3-oxazolidin-5-yl}methyl)thiophene-2-carboxamide], the IC50 worked out at 1.1 nM.

With `N=C1OCCCN1c1ccc(N2C[C@H](CNC(=O)c3ccc(Cl)s3)OC2=O)cc1` [Example 5, 5-Chloro-N-({(5S)-3-[4-(2-imino-1,3-oxazinan-3-yl)phenyl]-2-oxo-1,3-oxazolidin-5-yl}methyl)thiophene-2-carboxamide methanesulfonate], the IC50 stood at 3.1 nM. This IC50 lies about 2.8-fold higher than the previous one.

`N#CN=C1OCCN1c1ccc(N2C[C@H](CNC(=O)c3ccc(Cl)s3)OC2=O)cc1` [Example 6, 5-Chloro-N-[((5S)-3-{4-[2-(cyanoimino)-1,3-oxazolidin-3-yl]phenyl}-2-oxo-1,3-oxazolidin-5-yl)methyl]thiophene-2-carboxamide] yielded a half-maximal inhibitory concentration (IC50) of 16 nM.
